Assay results as given in ChEMBL document CHEMBL1201862, “PubChem BioAssay data set” (2004).
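Following 48 hours of exposure in 96-well plates, responses at five concentrations were used to interpolate endpoints linearly. Abbreviation: GI50, concentration required for 50% inhibition of growth.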 The source made the active and inactive calls. Cut-off read from the data, not from the text of the source: active = GI50 up to about 1.1 µM and inactive = higher.

Assays:
Test in all cases: inhibition of tumour cell growth, NCI panel, 48 h
[1] = system: IGROV-1
[2] = system: OVCAR-8
[3] = system: DLD-1
[4] = system: RXF 393
[5] = system: MOLT-4
[6] = system: SF-295
[7] = system: RXF 631
[8] = system: EKVX
[9] = system: HL-60
[10] = system: OVCAR-5
[11] = system: HCC 2998
[12] = system: SNB-78
[13] = system: SF-268
[14] = system: SK-MEL-28
[15] = system: KM12
[16] = system: Malme-3M
[17] = system: NCI-H226
[18] = system: TK-10
[19] = system: SNB-19
[20] = system: HOP-92
[21] = system: SF-539
[22] = system: UACC-62
[23] = system: NCI-H460
[24] = system: COLO 205
[25] = system: A549
[26] = system: DMS-114
[27] = system: ACHN
[28] = system: HCT-116
[29] = system: SW-620
[30] = system: M19-MEL
[31] = system: NCI-H23
[32] = system: RPMI-8226
[33] = system: SN12C
[34] = system: OVCAR-3
[35] = system: NCI-H522
[36] = system: UO-31
[37] = system: DMS-273
[38] = system: 786-0
[39] = system: SR
[40] = system: K562
[41] = system: LXFL 529
[42] = system: CAKI-1
[43] = system: SNB-75
[44] = system: CCRF-CEM
[45] = system: SK-MEL-2
[46] = system: HT-29
[47] = system: A498
[48] = system: SK-MEL-5
[49] = system: SK-OV-3
[50] = system: UACC-257
[51] = system: HOP-18
[52] = system: MDA-MB-435
[53] = system: OVCAR-4
[54] = system: PC-3
[55] = system: Hs-578T
[56] = system: BT-549
[57] = system: T47D
[58] = system: HOP-62
[59] = system: MCF7
[60] = system: DU-145
[61] = system: KM-20L2
[62] = system: HCT-15
[63] = system: M14
[64] = system: LOX IMVI
[65] = system: MDA-N
[66] = system: XF498
[67] = system: MDA-MB-231
[68] = system: NCI/ADR-RES
[69] = system: U-251

`Fc1ccccc1C1SCc2nc3ccccc3n21` (stereo not drawn) was tested, and the GI50 [1] was 60.5 µM (inactive), the GI50 [2] was 49.4 µM (inactive) and the GI50 [3] was 53.7 µM (inactive). The GI50 [4] was 92 µM (inactive), the GI50 [5] was 30.4 µM (inactive) and the GI50 [6] was 41.8 µM (inactive). The GI50 [7] was 31.3 µM (inactive), the GI50 [8] was 37.5 µM (inactive) and the GI50 [9] was 11.9 µM (inactive). For the same molecule, the GI50 [10] was 41.5 µM (inactive), the GI50 [11] was 75.2 µM (inactive) and the GI50 [12] was > 100 µM (inactive). For the same molecule, the GI50 [13] was 69.8 µM (inactive), the GI50 [14] was > 100 µM (inactive) and the GI50 [15] was 89.9 µM (inactive). The GI50 [16] was 55.3 µM (inactive), the GI50 [17] was 76.7 µM (inactive) and the GI50 [18] was > 100 µM (inactive). The GI50 [19] was 86.7 µM (inactive), the GI50 [20] was 19.7 µM (inactive) and the GI50 [21] was > 100 µM (inactive). For the same molecule, the GI50 [22] was 35 µM (inactive), the GI50 [23] was 47.9 µM (inactive) and the GI50 [24] was 77.3 µM (inactive). For the same molecule, the GI50 [25] was 36.5 µM (inactive), the GI50 [26] was 24.4 µM (inactive) and the GI50 [27] was 38.1 µM (inactive). The GI50 [28] was 38.5 µM (inactive), the GI50 [29] was > 100 µM (inactive) and the GI50 [30] was 51.9 µM (inactive). The GI50 [31] was 33.2 µM (inactive), the GI50 [32] was 25.5 µM (inactive) and the GI50 [33] was 79.6 µM (inactive). The GI50 [34] was 38.4 µM (inactive), the GI50 [35] was 28 µM (inactive) and the GI50 [36] was 24.8 µM (inactive). The GI50 [37] was 31.3 µM (inactive), the GI50 [38] was > 100 µM (inactive) and the GI50 [39] was 38.1 µM (inactive). The GI50 [40] was 16.3 µM (inactive), the GI50 [41] was 37.6 µM (inactive) and the GI50 [42] was 44.8 µM (inactive). The GI50 [43] was 72.8 µM (inactive), the GI50 [44] was 43.1 µM (inactive) and the GI50 [45] was 76.4 µM (inactive). The GI50 [46] was > 100 µM (inactive), the GI50 [47] was 9.62 µM (inactive) and the GI50 [48] was 18.8 µM (inactive). For the same molecule, the GI50 [49] was 34.8 µM (inactive) and the GI50 [50] was 33.7 µM (inactive).

`C[C@@H]1C[C@@H](O)[C@]2(O)O[C@@H]3C[C@@]4(C=O)[C@@H](CC[C@@H]5[C@@H]4CC[C@]4(C)[C@@H](C6=CC(=O)OC6)CC[C@]54O)C[C@H]3O[C@@H]2O1` [CALACTIN] was tested, and the GI50 [1] was 0.00962 µM (active), the GI50 [2] was 0.0108 µM (active) and the GI50 [3] was 0.012 µM (active). For the same molecule, the GI50 [4] was 0.0194 µM (active), the GI50 [51] was 4.2 nM (active) and the GI50 [5] was 0.00188 µM (active). For the same molecule, the GI50 [6] was 0.0133 µM (active), the GI50 [52] was 44.1 nM (active) and the GI50 [53] was 22.2 nM (active). The GI50 [54] was 40.3 nM (active), the GI50 [8] was 0.0244 µM (active) and the GI50 [9] was 0.0129 µM (active). For the same molecule, the GI50 [55] was 20.2 nM (active), the GI50 [10] was 0.0237 µM (active) and the GI50 [11] was 0.161 µM (active). For the same molecule, the GI50 [56] was 37.9 nM (active), the GI50 [12] was 0.0106 µM (active) and the GI50 [13] was 0.00231 µM (active). For the same molecule, the GI50 [14] was 0.0288 µM (active), the GI50 [57] was 46.9 nM (active) and the GI50 [15] was 0.0226 µM (active). For the same molecule, the GI50 [16] was 0.0119 µM (active), the GI50 [17] was 0.0243 µM (active) and the GI50 [18] was 0.00906 µM (active). The GI50 [58] was 6.71 nM (active), the GI50 [19] was 0.0219 µM (active) and the GI50 [20] was 0.0276 µM (active). The GI50 [21] was 0.00581 µM (active), the GI50 [59] was 33.5 nM (active) and the GI50 [22] was 0.016 µM (active). The GI50 [23] was 0.00464 µM (active), the GI50 [24] was 0.0221 µM (active) and the GI50 [25] was 0.00439 µM (active). The GI50 [26] was 0.00141 µM (active), the GI50 [27] was 0.00283 µM (active) and the GI50 [28] was 0.0102 µM (active). For the same molecule, the GI50 [60] was 17.1 nM (active), the GI50 [29] was 0.0133 µM (active) and the GI50 [30] was 0.0206 µM (active). The GI50 [31] was 0.00222 µM (active), the GI50 [61] was 18.2 nM (active) and the GI50 [32] was 0.0281 µM (active). For the same molecule, the GI50 [33] was 0.00301 µM (active), the GI50 [34] was 0.00169 µM (active) and the GI50 [35] was 0.00138 µM (active). The GI50 [62] was 16.2 nM, the GI50 [36] was 0.0171 µM (active) and the GI50 [37] was 0.00455 µM (active). The GI50 [38] was 0.00617 µM (active), the GI50 [63] was 22.2 nM (active) and the GI50 [64] was 14.8 nM (active). The GI50 [39] was 0.00275 µM (active), the GI50 [40] was 0.0179 µM (active) and the GI50 [41] was 0.00501 µM (active). The GI50 [42] was 0.01 µM (active), the GI50 [43] was 0.0251 µM (active) and the GI50 [44] was 0.00371 µM (active). The GI50 [45] was 0.0114 µM (active), the GI50 [46] was 0.021 µM (active) and the GI50 [65] was 53.8 nM (active). The GI50 [47] was 0.0208 µM (active), the GI50 [66] was 15.9 nM (active) and the GI50 [48] was 0.0101 µM (active). For the same molecule, the GI50 [67] was 15.3 nM (active), the GI50 [49] was 0.0118 µM (active) and the GI50 [50] was 0.0213 µM (active). The GI50 [68] was 30.6 nM (active) and the GI50 [69] was 19 nM (active).
